In patent US20040248859A1, “Medicinal compositions for treating secondary parathyroid hyperfunction and remedies for cardiovascular complications in association with treatment for secondary parathyroid hyperfunction” (priority 2001, published 2004):

Key:
[1] = tested on: 5/6 nephrectomized rats (kidney failure model with 2HPT); assay: Ca and Pi in serum (serum Ca×Pi product) of 5/6 nephrectomized rats; assay type: in vivo, rat; conditions: for serum Ca×Pi product over the SNX control group: three times a week, 7 administrations
Text: (§1) Rats with 5/6 nephrectomy (5/6 nephrectomized rats) were used as an experimental model to examine the agent of the present invention for its effect on cardiovascular complications. Such 5/6 nephrectomized rats are widely used as an experimental nephritis model with 2HPT (Ichikawa et al., Nephrology, vol. 4, pp. 391-395, 1998).
(§2) Seven-week-old male SD rats (Japan SLC, Inc.) were subjected to 5/6 nephrectomy according to the method of Platt et al. (Platt R. et al., Clin. Sci. 11, 217-231, 1952) to remove the whole of the right kidney and 2/3 of the left kidney. The rats were then allowed to rest for 10 weeks to create a kidney failure model with 2HPT.
(§3) The nephrectomized rats were divided into 4 test groups: OCT 1.25 μg/kg group (8 rats), OCT 6.25 μg/kg group (8 rats), 1,25(OH)2D3 0.125 μg/kg group (8 rats) and 1,25(OH)2D3 0.625 μg/kg group (8 rats).
(§4) Starting at 10 weeks after surgery, the rats of each group were administered with a given dose of OCT or 1,25-dihydroxyvitamin D3 (each dissolved in phosphate buffer, pH 6.52) via the tail vein. Administration was conducted three times a week for a total of 7 administration (i.e., on Monday, Wednesday, Friday, Monday, Wednesday, Friday and Monday). Twenty-four hours after the last administration, the blood was collected from the abdominal descending aorta of each rat under ether anesthesia. The rats were then sacrificed by exsanguination and the heart and aorta were excised from each rat.
(§5) Six rats of sham-operated (Sham control) group were subjected to renal decapsulation alone instead of 5/6 nephrectomy and then treated in the same manner as used for the test groups, except that phosphate buffer (Ph 6.52) was administered instead of OCT or 1,25-dihydroxyvitamin D3. Likewise, 9 rats of SNX control group were treated in the same manner as used for the test groups, except that phosphate buffer (pH 6.52) was administered instead of OCT or 1,25-dihydroxyvitamin D3.
2. Ca and Pi in serum After serum was separated from the collected blood, Ca and Pi contained in the serum were measured with a Hitachi 7170-E autoanalyzer using an Autosera reagent (Daiichi Pure Chemicals Co., Ltd.) to determine the serum Ca×Pi product for each rat.
(§6) The relationship between Sham control group and SNX control group was analyzed by unpaired t-test. The relationship between SNX control group and each OCT- or 1,25(OH)2D3-administered group was analyzed by Dunnett's multiple comparison test.

[2] = tested on: 5/6 nephrectomized rats (kidney failure model with 2HPT); assay: Ca and Pi contents in individual organs (aorta and heart) of 5/6 nephrectomized rats; assay type: in vivo, rat
Text: as §1, §2, §3, §4, §5
Each heart and aorta were lyophilized for 24 hours in a FREEZE DRYER FD-5N (trade name, EYELA) and then treated for 48 hours with a chloroform/methanol solution (chloroform:methanol=2:1, special-reagent-grade chloroform and methanol were both purchased from Junsei Chemical Co., Ltd.). Subsequently, each organ was dehydrated for 3 hours with acetone (special reagent grade, Junsei Chemical Co., Ltd.) and then allowed to stand at room temperature for 24 hours. After delipidization and dehydration, each organ was transferred to a crucible and weighed to determine dry weight (Mettler). Ashing was carried out in a muffle furnace KDF S90 (trade name, Denken Co., Ltd., Kyoto, Japan) at 900° C. for 12 hours. The ashed sample was mixed with […] hydrochloric acid (1.0 mL), allowed to stand for 3 hours to dissolve sufficiently, and then collected in a polypropylene tube. The crucible was washed with purified water (1.0 mL), which was then also collected in the tube. Each sample was stored at 4° C. until measurement. Ca and Pi were measured with a Hitachi 7170-E autoanalyzer to calculate the Ca and Pi contents per gram of each organ.
as §6

[3] = tested on: 5/6 nephrectomized rats (kidney failure model with 2HPT); assay: Parathyroid hormone levels in blood (serum PTH, radioimmunoassay) of 5/6 nephrectomized rats; assay type: in vivo, rat; conditions: for effect on serum PTH levels: all doses (OCT 1.25 and 6.25 μg/kg, 1,25(OH)2D3 0.125 and 0.625 μg/kg), versus SNX control
Text: as §1, §2, §3
as §4, with “rat. […]” for “rat.”
After serum was separated from the collected blood, the level of parathyroid hormone (PTH) contained in the serum was measured with a commercially available radioimmunoassay kit (Immutopics, Inc., USA).
as §6

[4] = in vivo; cited from earlier work
[5] = 5/6 nephrectomized rats, via tail vein
[6] = 1,25(OH)2D3 0.125 μg/kg group versus OCT 6.25 μg/kg group (almost the same serum Ca×Pi product)

Row | SMILES | blood calcium levels ([1]; rat, in vivo) | deposition of Ca and Pi in the aorta and heart, OCT-administered groups versus 1,25(OH)2D3-administered groups ([2]; rat, in vivo) | effect on serum PTH levels [3] | blood half-life [4] | serum Ca×Pi product over the SNX control group ([1]; 0.125 μg/kg via tail vein) | serum Ca×Pi product over the SNX control group ([1]; 0.625 μg/kg via tail vein, 24 h after last administration, p<0.001) | minimum dose required to produce an elevating action on Ca×Pi product [1, 5] [µg/kg] | serum Ca×Pi product, comparison of the two groups ([1]; OCT 6.25 μg/kg group versus 1,25(OH)2D3 0.125 μg/kg group) | Ca content in the aorta over the SNX control group ([2]; 0.125 and 0.625 μg/kg, p<0.001) | Ca content in the heart over the SNX control group ([2]; 0.125 and 0.625 μg/kg, p<0.001) | Pi content in the aorta over the SNX control group ([2]; 0.125 and 0.625 μg/kg, p<0.001) | Pi content in the heart over the SNX control group ([2]; 0.125 and 0.625 μg/kg, p<0.001) | deposition of Ca in the aorta as compared to OCT [2, 6] | deposition of Pi in the aorta as compared to OCT [2, 6] | deposition of Pi in the heart as compared to OCT ([2]; 1,25(OH)2D3 0.125 μg/kg group versus OCT 6.25 μg/kg group, p<0.01) | deposition of Ca in the heart as compared to OCT ([2]; 1,25(OH)2D3 0.125 μg/kg group versus OCT 6.25 μg/kg group, p<0.05) | dose at which the therapeutic effect on secondary hyperparathyroidism (decreasing effect on PTH levels) can be produced [3, 5] [µg/kg]
1 | C=C1/C(=C\C=C2/CCC[C@]3(C)[C@@H]([C@H](C)OCCC(C)(C)O)CC[C@@H]23)C[C@@H](O)C[C@@H]1O [OCT, 1α,3β-dihydroxy-20S-(3-hydroxy-3-methylbutyloxy)-9,10-seco-5,7,10(19)-pregnatriene] | does not cause increase | significantly lower deposition | decreasing effect on PTH levels at all doses | about 20 minutes |  |  |  |  |  |  |  |  |  |  |  |  | 
2 | C=C1/C(=C\C=C2/CCC[C@]3(C)[C@@H]([C@H](C)CCCC(C)(C)O)CC[C@@H]23)C[C@@H](O)C[C@@H]1O [1,25-dihydroxyvitamin D3] |  |  | decreasing effect on PTH levels at all doses | ≥ 1 h | no significant elevation | significant elevation | 0.625 | almost the same level | dose-dependent significant increases | dose-dependent significant increases | dose-dependent significant increases | dose-dependent significant increases | apparently higher deposition | apparently higher deposition | significantly higher deposition | significantly higher deposition | 0.125
